Values of other authors as cited in publication PMC8528301 (PLoS ONE, 2021).

Tests used:
[1] = bile duct cannulated rats; no reference given; cited from earlier work
[2] = system: CYP3A4; conditions: in vitro metabolic studies; humans; cited from earlier work

## Cc1nc(Nc2ncc(C(=O)Nc3c(C)cccc3Cl)s2)cc(N2CCN(CCO)CC2)n1 [dasatinib]
[1]
  oral bioavailability: 27%
  percentage of unchanged drug in the gastrointestinal tract: 33%
[2]
  share of dasatinib metabolized by CYP3A4: 98%
